Data taken from patent US8741871B2, “Trehalose compound, method for producing same, and pharmaceutical product containing the compound” (priority 2008, dated 2014).

How the values were obtained:
[1] = system: mouse intraperitoneal macrophages; assay: Measurement of active oxygen released from mouse intraperitoneal macrophages (H2DCFDA fluorescence); assay type: cell-based; conditions: 50 μM test compound, one hour; FIG. 1
Procedure: 3 ml of 5% thioglycolate medium (Difco, BD, code. 225640, Lot. 6192372) was administered into the abdominal cavity of a mouse (ICR mouse (SPF), 5-week-old, male). Four days after the administration, the mouse was sacrificed with the use of diethyl ether. […] This operation was repeatedly carried out two times. […] Thereafter, the number of macrophages was counted with One Cell Counter (Wakenyaku Co., Ltd.). The obtained macrophages were diluted with an RPMI-1640 medium to have any given concentration. The thus obtained mouse intraperitoneal macrophages were used in the subsequent test.
0.7 g of BSA was weighed into a large test tube. […] Subsequently, protein was quantified using Nano Drop ND-1000, and it was then diluted with sterilized PBS (−) so as to result in a final concentration of 2%. […]
After the macrophages had been washed with HBSG-BSA, they were then suspended in approximately 5 mL of HBSG-BSA, and 100 of the obtained suspension was then dispensed into each well of a 96-well Collagen Well (TC-PLATE 96 WELL, STERILE WITH LID, IND PACKED). […] One hour later, the amount of active oxygen was measured using Genios fluorescence intensity measurement apparatus.
The above-mentioned H2DCFDA is a fluorescent probe, and its fluorescence intensity is increased in the presence of hydrogen peroxide (H2O2).

[2] = system: mouse intraperitoneal macrophages; assay: Measurement of phagocytic ability of mouse intraperitoneal macrophages (fluorescent beads); assay type: cell-based; conditions: 50 μM test compound, 2 hours, FIG. 2
Procedure: Mouse intraperitoneal macrophages, a 40 mM test compound solution, and an RPMI1640 medium were prepared in the same manner as described above.
In the following experiment, Fluoresbrite (trademark) Carboxylate Microspheres (2.58% Solids-Latex) YG (Polysciences, Inc.) were used as fluorescent beads.
Macrophages were added to a TC-Plate (TC-PLATE 24 WELL, STERILE WITH LID, IND PACKED, greiner bio-one), so that they became 80% confluent. The macrophages were incubated at 37° C. for 2 hours. Thereafter, the supernatant was discarded, and the cells were then washed with 500 μl of RPMI 1640 medium two times. Each composition shown in Table 3 below was added to the TC-Plate, and it was then incubated at 37° C. for 2 hours. Thereafter, the supernatant was discarded, and the cells were then washed with 300 μl of sterilized PBS (−). In order to remove fluorescent beads that had not been incorporated into the cells, the aforementioned washing operation was repeatedly carried out two times. Macrophages were peeled off with 200 μl of sterilized PBS (−), and were then transferred into an Eppendorf tube. The macrophages were centrifuged at 1,500 rpm for 8 minutes. […]
Using FUJI FILM FLA-2000, the amount of fluorescent beads incorporated into the cells was measured [fluorescence intensity (Fluor 473 nm, Y520 Filter)]. For analysis, Image Reader V1.4J was used.

THP-1 cells [3] = assay: Release of cytokine (MIP-1β, TNF-α) from THP-1 cells (ELISA); assay type: cell-based, human; conditions: 100 μM test compound, 2 hours, FIG. 9; for release level of TNF-α from THP-1 cells compared with the negative control: negative control vehicle; for release level of MIP-1β from THP-1 cells compared with the positive control: positive controls control compound A and TDCM
[4] = system: IL-6, TNF-α, IFN-γ in mouse plasma; assay: Measurement of IL-6, TNF-α and IFN-γ released into peripheral blood of test compound administered mouse; conditions: 100 μg/mouse intravenous, two hours later; for IL-6-releasing activity (mouse plasma IL-6 concentration) compared with TDCM: FIG. 6; for IFN-γ-releasing activity (mouse plasma IFN-γ concentration) compared with TDCM: FIG. 7
THP-1 cells [5] = assay: Analysis of cytotoxicity to THP-1 cells using trypan blue; assay type: cell-based, human; conditions: treated for 2 hours and for 24 hours; FIG. 10
Procedure: The cultured THP-1 cells were transferred into a 50-ml centrifuge tube in a clean bench. The cells were then centrifuged at 1,000 rpm for 5 minutes at 20° C., and the supernatant was then removed. […] 10 μl of this cell suspension was added to a sterile Eppendorf tube, to which 990 μl of serum-free RPMI 1640 medium had previously been added, so that the solution was 100-fold diluted. The number of cells in 10 μl of the 100-fold diluted solution was counted with a blood cell counter, and the cell suspension was diluted with serum-free RPMI 1640 medium to a cell density of 1×10^7 cells/ml.
A test compound (Example 9)/DMSO solution, or DMSO was added to 100 μl of RPMI medium to a concentration of 200 μM. Thereafter, ultrasonic wave was applied to the mixture for 5 seconds. It is to be noted that a test compound, 6-O-(2-decyldecanoyl)-α-glucose (hereinafter referred to as a “control compound B”), and TDCM were used to prepare positive controls in the same manner as described above. In addition, a negative control was prepared by adding no test compounds (vehicle). […] Subsequently, 20 μl of 0.3% trypan blue/PBS (−) was added to the reaction solution so as to suspend the reaction solution therein, and thereafter, the survival rate of the cells was immediately analyzed using a cell number measuring apparatus (CYRORECON).

[6] = system: Salmonella typhmurium TA98; assay: Mutagenicity test (Ames test); conditions: TA98, in the presence or absence of S9 mix; FIG. 11

Row | SMILES | action to promote the generation of active oxygen from mouse intraperitoneal macrophages, compared with TDCM [1] | action to activate the phagocytosis of mouse intraperitoneal macrophages, compared with TDCM [2] | release level of TNF-α from THP-1 cells compared with the negative control (THP-1 cells [3]) | release level of MIP-1β from THP-1 cells compared with the positive control (THP-1 cells [3]) | IL-6-releasing activity (mouse plasma IL-6 concentration) compared with TDCM [4] | IFN-γ-releasing activity (mouse plasma IFN-γ concentration) compared with TDCM [4] | plasma TNF-α concentration in mice, activity compared with TDCM ([4]; FIG. 8) | cytotoxicity to THP-1 cells (survival rate, trypan blue staining) (THP-1 cells [5]) | mutagenicity (Ames test, number of His colonies) [6]
1 | CCCCCCCCCCC(CCCCCCCCCC)C(=O)OCC1O[C@H](O[C@H]2OC(COC(=O)C(CCCCCCCCCC)CCCCCCCCCC)[C@@H](O)C(O)C2O)C(O)C(O)[C@@H]1O (stereo partly drawn) [Example 1, 6,6′-bis-O-(2-decyldodecanoyl)-α,α′-trehalose] | two times higher than the activity of TDCM | approximately two times higher than the activity of TDCM | almost equivalent to | higher than | approximately 1.2 times | approximately 1.5 times | the same level as that of TDCM | significant results could be obtained | significant results could be obtained
2 | CCCCCCCCCC(CCCCCCCCC)CC(=O)OCC1O[C@H](O[C@H]2OC(COC(=O)CC(CCCCCCCCC)CCCCCCCCC)[C@@H](O)C(O)C2O)C(O)C(O)[C@@H]1O (stereo partly drawn) [Example 9, 6,6′-bis-O-(3-nonyldodecanoyl)-α,α′-trehalose] | two times higher than the activity of TDCM | approximately two times higher than the activity of TDCM | almost equivalent to | 8 to 10 times | approximately 1.5 times | approximately 1.5 times |  | cytotoxicity was not observed | did not exhibit mutagenicity
